Source: patent US12590062B2, “PD-1/PD-L1 inhibitors” (Gilead Sciences, Inc., priority 2017, dated 2026)

How the values were obtained:
[1] = molecular target: T1, PD-1/PD-L1 interaction (Homo sapiens, UniProt Q9NZQ7); assay: PD-1/PD-L1 NFAT reporter co-culture assay; assay type: cell-based; conditions: Jurkat PD-1 NFAT-luciferase cells co-cultured with aAPC-PD-L1 CHO cells, 6 hrs at 37° C.; read-out: EC50 NFAT Luciferase
T1 construct: expressed in transfected cells; host or cells: CHO cells (aAPC-PD-L1) co-cultured with Jurkat cells overexpressing PD-1 and an NFAT-luciferase reporter
Summary of the method: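 Restoration of TCR-driven NFAT luciferase signal: 6 h, 37 °C co-culture of PD-1 Jurkat reporter cells (pre-mixed with compound) on overnight-seeded PD-L1/anti-CD3 CHO monolayer. ONE-Glo luminescence; dose-response fitted to four-parameter equation for EC50.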

[2] = molecular target: PD-1/PD-L1 (Homo sapiens, UniProt Q9NZQ7); assay: PD-1/PD-L1 biochemical protein-protein interaction assay (ALPHA); assay type: binding; conditions: 0.3 nM His tagged PD-L1, 2.5 nM biotinylated Fc-PD-1, 60 minutes at 25° C., read-out: IC50 PD-L1-PD-1 Alpha IC50-mono PD-L1-fcP-D1
Summary of the method: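 ALPHA bead proximity assay of extracellular domains: 0.3 nM His-PD-L1 with 2.5 nM biotinylated Fc-PD-1 in 25 mM Hepes pH 7.4, 150 mM NaCl, 3.4 mM EDTA, 0.005% Tween 20, 0.01% BSA, 60 min at 25 °C. Anti-His acceptor and streptavidin donor beads added; IC50 from four-parameter fit of signal loss.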

[3] = molecular target: T2, PD-L1 (Homo sapiens, UniProt Q9NZQ7); assay: PD-L1/PD-L1 dimerization biochemical protein-protein interaction assay (ALPHA); assay type: binding; conditions: compound-induced PD-L1 dimerization, head prints '1 nM' (0.5 nM His-tagged PD-L1 and 0.5 nM FLAG-tagged PD-L1), read-out: AC50 PDL1 Dimer Alpha 1 nM
T2 construct: determine if they can specifically dimerize the extracellular domains of PD-L1
Summary of the method: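 ALPHA proximity assay of compound-induced dimerization of 0.5 nM His-tagged and 0.5 nM FLAG-tagged PD-L1 extracellular domains in Hepes pH 7.4 buffer, 2 h at 25 °C. Anti-His acceptor then anti-FLAG donor beads, 60 min each; AC50 from four-parameter fit.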

PD-1/PD-L1, sequence (Q9NZQ7 19-238 limits assumed): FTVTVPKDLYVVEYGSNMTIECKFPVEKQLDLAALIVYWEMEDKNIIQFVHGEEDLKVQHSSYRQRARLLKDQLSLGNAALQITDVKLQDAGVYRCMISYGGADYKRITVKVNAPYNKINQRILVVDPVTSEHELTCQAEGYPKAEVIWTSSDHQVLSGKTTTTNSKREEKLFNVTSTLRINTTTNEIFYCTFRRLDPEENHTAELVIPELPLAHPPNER
T2 sequence (Q9NZQ7 19-238 limits assumed): as above
T2 sequence (Q9NZQ7 19-238 limits assumed): as above
T1 sequence (Q9NZQ7 19-290): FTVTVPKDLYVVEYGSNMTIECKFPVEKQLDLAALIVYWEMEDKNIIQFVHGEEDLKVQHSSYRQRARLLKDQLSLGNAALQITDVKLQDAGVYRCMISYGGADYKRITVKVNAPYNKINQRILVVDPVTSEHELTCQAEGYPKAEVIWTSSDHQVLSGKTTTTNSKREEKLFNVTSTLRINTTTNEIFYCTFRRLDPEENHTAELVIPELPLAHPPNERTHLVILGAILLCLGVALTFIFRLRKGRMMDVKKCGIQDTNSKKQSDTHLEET

Row | EC50 [1] [nM] | IC50 [2] [nM] | AC50 [3] [nM] | SMILES
1 | 1880 | 0.241 | 342 | Cc1c(COc2cc(OCc3cncc(C#N)c3)c(CNC[C@@H](O)CC(=O)O)cc2Cl)cccc1-c1cccc(-c2ccc(O[C@H]3CCCN(CCO)C3)cc2)c1C [Example 354, (S)-4-((5-chloro-2-((5-cyanopyridin-3-yl)methoxy)-4-((4″-(((S)-1-(2-hydroxyethyl)piperidin-3-yl)oxy)-2,2′-dimethyl-[1,1′:3′,1″-terphenyl]-3-yl)methoxy)benzyl)amino)-3-hydroxybutanoic acid]
2 | 202 | 0.358 | ≥ 10000 | COc1cc(OCc2cccc(-c3cccc(COc4cc(OC)c(CNC[C@@H](O)CC(=O)O)cc4C(F)(F)F)c3C)c2C)c(Cl)cc1CNC[C@@H](O)CC(=O)O [Example 357, (S)-4-((4-((3′-((4-((((S)-3-carboxy-2-hydroxypropyl)amino)methyl)-2-chloro-5-methoxyphenoxy)methyl)-2,2′-dimethyl-[1,1′-biphenyl]-3-yl)methoxy)-2-methoxy-5-(trifluoromethyl)benzyl)amino)-3-hydroxybutanoic acid]
3 | 2090 | 0.137 | 100 | CNCc1cccc(-c2cccc(-c3cccc(COc4cc(OCc5cncc(C#N)c5)c(CN[C@@](C)(CO)C(=O)O)cc4Cl)c3C)c2C)c1 [Example 358, (S)-2-((5-chloro-2-((5-cyanopyridin-3-yl)methoxy)-4-((2,2′-dimethyl-3″-((methylamino)methyl)-[1,1′:3′,1″-terphenyl]-3-yl)methoxy)benzyl)amino)-3-hydroxy-2-methylpropanoic acid]
4 | 216 | 2.11 | 540 | Cc1c(COc2cc(OCc3cncc(C#N)c3)c(CNC[C@@H](O)CC(=O)O)cc2Cl)cccc1-c1cccc(-c2ccc3c(CNC[C@@H](O)CC(=O)O)ccc(Cl)c3c2)c1C [Example 359, (S)-4-(((6-(3′-((4-((((S)-3-carboxy-2-hydroxypropyl)amino)methyl)-2-chloro-5-((5-cyanopyridin-3-yl)methoxy)phenoxy)methyl)-2,2′-dimethyl-[1,1′-biphenyl]-3-yl)-4-chloronaphthalen-1-yl)methyl)amino)-3-hydroxybutanoic acid]
5 | 520 | 1.12 | 224 | Cc1c(COc2cc(OCc3cncc(C#N)c3)c(CN[C@@](C)(CO)C(=O)O)cc2Cl)cccc1-c1cccc(-c2ccc(CNCCc3c[nH]cn3)cc2)c1C [Example 360, (S)-2-((4-((4″-(((2-(1H-imidazol-4-yl)ethyl)amino)methyl)-2,2′-dimethyl-[1,1′:3′,1″-terphenyl]-3-yl)methoxy)-5-chloro-2-((5-cyanopyridin-3-yl)methoxy)benzyl)amino)-3-hydroxy-2-methylpropanoic acid]
6 | 314 | 0.13 | 138 | Cc1c(COc2cc(OCc3cncc(C#N)c3)c(CN[C@@](C)(CO)C(=O)O)cc2Cl)cccc1-c1cccc(-c2ccc(CN[C@H]3CC[C@H](O)CC3)cc2)c1C [Example 361, (S)-2-((5-chloro-2-((5-cyanopyridin-3-yl)methoxy)-4-((4″-((((1r,4r)-4-hydroxycyclohexyl)amino)methyl)-2,2′-dimethyl-[1,1′:3′,1″-terphenyl]-3-yl)methoxy)benzyl)amino)-3-hydroxy-2-methylpropanoic acid]
7 | 221 | 0.104 | 108 | CC(=O)NCCNCc1ccc(-c2cccc(-c3cccc(COc4cc(OCc5cncc(C#N)c5)c(CN[C@@](C)(CO)C(=O)O)cc4Cl)c3C)c2C)cc1 [Example 362, (S)-2-((4-((4″-(((2-acetamidoethyl)amino)methyl)-2,2′-dimethyl-[1,1′:3′,1″-terphenyl]-3-yl)methoxy)-5-chloro-2-((5-cyanopyridin-3-yl)methoxy)benzyl)amino)-3-hydroxy-2-methylpropanoic acid]
8 | 168 | 0.081 | 171 | Cc1c(COc2cc(OCc3cncc(C#N)c3)c(CN[C@@](C)(CO)C(=O)O)cc2Cl)cccc1-c1cccc(-c2ccc(CNC3CNC(=O)C3)cc2)c1C (stereo partly drawn) [Example 363, (2S)-2-((5-chloro-2-((5-cyanopyridin-3-yl)methoxy)-4-((2,2′-dimethyl-4″-(((5-oxopyrrolidin-3-yl)amino)methyl)-[1,1′:3′,1″-terphenyl]-3-yl)methoxy)benzyl)amino)-3-hydroxy-2-methylpropanoic acid]
9 | 353 | 0.304 | 98.3 | Cc1c(COc2cc(OCc3cncc(C#N)c3)c(CN[C@@](C)(CO)C(=O)O)cc2Cl)cccc1-c1cccc(-c2ccc(OCCc3cccnc3)c(CNCCO)c2)c1C [Example 364, (S)-2-((5-chloro-2-((5-cyanopyridin-3-yl)methoxy)-4-((3″-(((2-hydroxyethyl)amino)methyl)-2,2′-dimethyl-4″-(2-(pyridin-3-yl)ethoxy)-[1,1′:3′,1″-terphenyl]-3-yl)methoxy)benzyl)amino)-3-hydroxy-2-methylpropanoic acid]
10 | 408 | 1.57 | 174 | Cc1c(COc2cc(OCc3cncc(C#N)c3)c(CNCCO)cc2Cl)cccc1-c1cccc(-c2ccc(CNCCO)cc2)c1CF [Example 365, 5-((4-chloro-5-((2′-(fluoromethyl)-4″-(((2-hydroxyethyl)amino)methyl)-2-methyl-[1,1′:3′,1″-terphenyl]-3-yl)methoxy)-2-(((2-hydroxyethyl)amino)methyl)phenoxy)methyl)nicotinonitrile]
11 | 376 | 2.53 | 227 | Cc1c(COc2cc(OCc3cncc(C#N)c3)c(CN[C@H]3CCCC[C@@H]3O)cc2Cl)cccc1-c1cccc(-c2cccc(OCCNCCO)c2)c1C [Example 367, 5-((4-chloro-2-((((1S,2S)-2-hydroxycyclohexyl)amino)methyl)-5-((3″-(2-((2-hydroxyethyl)amino)ethoxy)-2,2′-dimethyl-[1,1′:3′,1″-terphenyl]-3-yl)methoxy)phenoxy)methyl)nicotinonitrile]
12 | 118 | 1.88 | 274 | Cc1c(COc2cc(OCc3cncc(C#N)c3)c(CN[C@@H]3CCC[C@@H]3O)cc2Cl)cccc1-c1cccc(-c2ccc(CN3CC(CC(=O)O)C3)cc2)c1C [Example 368, 2-(1-((3″-((2-chloro-5-((5-cyanopyridin-3-yl)methoxy)-4-((((1R,2S)-2-hydroxycyclopentyl)amino)methyl)phenoxy)methyl)-2′,2″-dimethyl-[1,1′:3′,1″-terphenyl]-4-yl)methyl)azetidin-3-yl)acetic acid]
13 | 107 | 0.164 | 57.6 | Cc1c(COc2cc(OCc3cncc(C#N)c3)c(CN[C@@H]3CCC[C@@H]3O)cc2Cl)cccc1-c1cccc(-c2ccc3c(c2)CCC3N2CC[C@H](C(=O)O)C2)c1C (stereo partly drawn) [Example 369, (3S)-1-(5-(3′-((2-chloro-5-((5-cyanopyridin-3-yl)methoxy)-4-((((1R,2S)-2-hydroxycyclopentyl)amino)methyl)phenoxy)methyl)-2,2′-dimethyl-[1,1′-biphenyl]-3-yl)-2,3-dihydro-1H-inden-1-yl)pyrrolidine-3-carboxylic acid]
14 | 577 | 0.139 | 81.4 | Cc1c(COc2cc(OCc3cncc(C#N)c3)c(CN3CC[C@@H](O)C3)cc2Cl)cccc1-c1cccc(-c2ccc3c(c2)CCC3N2CC[C@@H](C(=O)O)C2)c1C (stereo partly drawn) [Example 370, (3R)-1-(5-(3′-((2-chloro-5-((5-cyanopyridin-3-yl)methoxy)-4-(((R)-3-hydroxypyrrolidin-1-yl)methyl)phenoxy)methyl)-2,2′-dimethyl-[1,1′-biphenyl]-3-yl)-2,3-dihydro-1H-inden-1-yl)pyrrolidine-3-carboxylic acid]
15 | 210 | 0.074 | 78 | Cc1c(COc2cc(OCc3cncc(C#N)c3)c(CN[C@@](C)(CO)C(=O)O)cc2Cl)cccc1-c1cccc(-c2ccc3c(c2)CCC3N2CC(C)C2)c1C (stereo partly drawn) [Example 371, (2S)-2-((5-chloro-2-((5-cyanopyridin-3-yl)methoxy)-4-((2,2′-dimethyl-3′-(1-(3-methylazetidin-1-yl)-2,3-dihydro-1H-inden-5-yl)-[1,1′-biphenyl]-3-yl)methoxy)benzyl)amino)-3-hydroxy-2-methylpropanoic acid]
16 | 860 | 1.13 | 425 | Cc1c(COc2cc(OCc3cncc(C#N)c3)c(CNC[C@@H](O)CC(=O)O)cc2Cl)cccc1-c1cccc(-c2cc3c(cc2F)C(N(C)C)CC3)c1C (stereo partly drawn) [Example 372, (3S)-4-((5-chloro-2-((5-cyanopyridin-3-yl)methoxy)-4-((3′-(1-(dimethylamino)-6-fluoro-2,3-dihydro-1H-inden-5-yl)-2,2′-dimethyl-[1,1′-biphenyl]-3-yl)methoxy)benzyl)amino)-3-hydroxybutanoic acid]
